Experimental data reported in patent US20130158112A1, “COMPOSITIONS AND METHODS FOR INHIBITING BETA AMYLOID SECRETION” (priority 2011, published 2013).
Where “and” joins values, the source holds several entries; their conditions need not be identical. Equal entries are not always repeated. Entries after “also recorded” stand apart in the source; their conditions may differ. Where two headings read alike, the source gives them in different places.

What was measured:
[1] = test system: α-secretase; assay: α-Secretase activity, compound added directly to cell lysates; assay type: biochemical, human; details: added to lysates rather than live cells
Description: H4βAPP695 wt were treated with vehicle or 1 for 24 h, washed with ice cold PBS, and lysed in extraction buffer provided with the α-secretase assay kit (R&D Systems) for 10 min on ice and centrifuged at 10000 g for 1 min to remove nuclei. Protein content of the supernatant was determined by the BCA assay, and 50 μg of lysate protein were added to wells of a 96-well assay plate and the volume was adjusted to 100 μL using the lysis buffer. 100 μL of reaction buffer and 10 μL of the fluorogenic substrate were added, and the plates were incubated at 37° C. in the dark with gentle agitation for 2 h. Activity was detected in a fluorescence plate reader using an excitation of 355 nm and an emission of 510 nm after subtraction of fluorescence in the absence of cell lysate.
We measured the activity of α-secretase using a fluorogenic peptide substrate in lysates of H4βAPP695 wt cells. […] However, addition of compound 1 directly to the cell lysates, rather than to the live cells, had no effect on α-secretase activity (data not shown), implying an indirect cellular activation of this pathway rather than direct activation of the α-secretase protease by compound 1.

[2] = test system: Aβ secretion; assay: Secreted total Aβ ELISA in conditioned media of H4βAPP695 wt cells; assay type: cell-based, human; details: H4βAPP695 wt cells
Procedure, shortened: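 H4 […] cells stably expressing wild-type βAPP695 (CMV promoter), serum-starved 24 h, then exposed to drug in DMSO or vehicle for 24 h before Aβ in conditioned media was measured. Primary cortical neurons came from E18 APPswe/PSEN1dE9 mice on C57BL/6 background.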

[3] = test system: ADAM9; assay: Western blot of pro and active ADAM9 in H4βAPP695 wt cells; assay type: cell-based, human; details: 24 h
Description: (§1) Several members of the ADAM (a disintegrin and metalloproteinase) family, ADAM9, ADAM10, and ADAM17, have been reported to have α-secretase activity. […] Using antibodies specific for these three ADAM proteases, we assessed the levels of the pro and active forms in cells cultured with increasing concentrations of compound 1. […] At the 10 μM dose of compound 1, we observed a 31% increase in the ratio of active/pro ADAM9 (p<0.05), N=3 each control and compound 1) and a 42% increase in the ratio active/pro ADAM10 (p<0.05). Although the direct target for compound 1 has not been identified, it seems likely that its mechanism is via the increased ADAM 9 and ADAM10 processing into active α-secretase, which cleaves APP in a manner that precludes Aβ production.

[4] = test system: THLE-3 human hepatoma cells; assay: Drug activity persistence after incubation with THLE-3 hepatoma cells; assay type: in vitro ADME; details: Homo sapiens, THLE3, 24 h
Description: (§2) H4βAPP695 wt cells, a human […] cell line stably transfected with a wtβAPP695 expression vector construct under the control of a CMV promoter (kindly provided by Dr. Chris Eckman from Mayo Clinic, Florida) were cultured as previously described. Twenty-four hours before drug treatment, the media was replaced with serum-free media. Cells were then incubated with drugs (dissolved in DMSO) or vehicle for 24 h for collection of conditioned media and cell lysates. For the PKC inhibitors experiment, three inhibitors were treated 30 min prior to drug challenge. Primary cortical neurons were prepared from embryonic day 18 APP and presenilin 1 (APPswe, PSEN1dE9) transgenic mice on the C57BL/6 genetic background (Jackson Laboratories, strain no. 5864) as previously described. THLE-3 human hepatoma cells (from ATCC) were plated in 24-well plates that were precoated with 10 μg/mL bovine serum albumin, 10 μg/mL fibronectin, and 30 μg/mL bovine type I collagen. The cells were grown in BEGM media (Clonetics) until confluent and treated with drugs at 20 μM for 24 h. This conditioned media was harvested, diluted 1:1 in serum-free medium, and incubated with H4βAPP695 wt cells for 24 h prior to analysis of secreted Aβ, which was compared to the effect of 10 μM drug treatments without prior incubation with the THLE-3 cells. Caco-2 cells (ATCC) were plated in 12-well plates with Transwell inserts (Costar) at 70000 cells per well and grown for 21 days. The media volume of the apical and basal chambers was 0.5 and 1.5 mL, respectively. Transepithelial resistance was measured in each well and found to be >160 Ω/cm^2. Drugs at 40 μM and 20 μg/mL of lucifer yellow were added in serum-free medium to the apical chamber. Four hours later, the basal chamber media was harvested and used to measure lucifer yellow fluorescence to confirm monolayer integrity as well as for treatment of H4βAPP695 wt cells for 24 h prior to analysis of secreted Aβ, which was compared to the effect of direct addition of 10 μM of the corresponding drug.
To screen for resistance to metabolism, 1 and eight noncytotoxic analogues with >50% Aβ reducing activity (compounds 27, 29, 48, 52, 53, 65, 73, and 76) were incubated at 20 μM for 24 h with or without THLE-3 human hepatoma cells.

[5] = test system: Aβ secretion; assay: PKC inhibitors experiment on Aβ secretion; assay type: cell-based, human
Description: as §2
The tumor promoter phorbal myristate acetate is an activator of protein kinase C (PKC) that has been reported to activate α-secretase activity. Thus, we wanted to determine if protein kinase C inhibitors could block the effect of compound 1 on Aβ secretion.

[6] = test system: ADAM17; assay: Western blot of pro and active ADAM17 in H4βAPP695 wt cells; assay type: cell-based, human; details: increasing concentrations, 24 h
Description: as §1

[7] = test system: Caco-2 cells; assay: Epithelial transcellular transport of drug activity through Caco-2 monolayers; assay type: in vitro ADME
Description: as §2
Monolayer integrity was confirmed by high levels of transcellular electrical resistance (>160 ohms/cm^2) and by transcellular impermeability to the fluorescent dye lucifer yellow. […] The concentration of each compound added to the upper chamber would lead to 10 μM in the lower chamber if equilibration was complete, and thus the activity of the lower chamber media was compared to the activity of 10 μM drug added directly to the H4βAPP695 wt cells. […] Compound 1 crossed the monolayer and the bottom chamber media led to a 27% reduction in Aβ production, yielding 38% of the theoretical activity. The compound with the most activity in the lower chamber was compound 48, which decreased Aβ production by 50%, with 71% of its theoretical activity. […] On the basis of the combined activity data from these last two studies, compound 48 was selected as the lead drug for in vivo study.

[8] = test system: ADAM10; assay: Western blot of pro and active ADAM10 in H4βAPP695 wt cells; assay type: cell-based, human; details: 24 h
Description: as §1

Q: Which “α-secretase activity on direct addition to cell lysates” value [1] does the source give for `O=C(NCCSCc1cccc(Cl)c1)c1c(Cl)cccc1Cl` [Compound 1] here?
A: no effect

Q: And the Aβ lowering activity ([2]; 1 μM)?
A: displayed Aβ lowering activity at 1 μM

Q: And the “% β Decrease” value ([2]; 10 μM, relative to vehicle treated control cells)?
A: 75.3%

Q: And the inhibition at 10 µM ([2]; Homo sapiens, 24 h, 10 μM, relative to vehicle treated control cells, read-out: % β Decrease)?
A: 75.3 ± 11.6%

Q: And the “increase in the ratio of active/pro ADAM9” value ([3]; 10 μM)?
A: 31%

Q: And the “active ADAM9 / processing of ADAM9” value ([3]; increasing doses)?
A: dose dependent increase; also recorded: promotes cellular processing

Q: And the inhibition at 10 µM ([4]; 10 μM on H4 cells, without preincubation with hepatoma cells, read-out: hepatoma incubation No total Aβ (% decrease))?
A: 69.4%

Q: And the inhibition at 10 µM ([4]; 20 μM preincubated 24 h with THLE-3 hepatoma cells, diluted to 10 μM on H4 cells, read-out: hepatoma incubation Yes total Aβ (% decrease))?
A: 34.6%

Q: And the “effect on Aβ secretion in presence of PKC inhibitors” value [5]?
A: not blocked by PKC inhibitors

Q: What about the “active form of ADAM17” value [6] of the same compound?
A: did not observe much effect

Q: What about the “% theoretical activity” value ([7]; % of activity passing through Caco-2 monolayer) of the same compound?
A: 38% and 38.4%

Q: What about the inhibition at 10 µM ([7]; Homo sapiens, Caco-2, 10 μM drug alone added directly to H4βAPP695 wt cells, read-out: transcellular transport No total Aβ (% decrease)) of the same compound?
A: 69.4%

Q: And the inhibition at up to 10 µM ([7]; Homo sapiens, Caco-2, 4 h, lower chamber media after 4 h on Caco-2 monolayer, 10 μM if in equilibrium, read-out: transcellular transport Yes total Aβ (% decrease))?
A: 27%

Q: What about the “increase in the ratio active/pro ADAM10” value ([8]; 10 μM) of the same compound?
A: 42%

Q: What about the “active ADAM10 / processing of ADAM10” value ([8]; increasing doses) of the same compound?
A: dose dependent increase; also recorded: promotes cellular processing
